Entries after “also recorded” stand apart in the source; their conditions may differ.
Legend:
advanced solid tumors = assay: FIGHT-102 efficacy, investigator-assessed RECIST 1.1; format: in vivo, human; set-up: key to Best overall response: PR, partial response; SD, stable disease; PD, progressive disease; NE, not evaluable
Description: Efficacy assessments occurred at screening (baseline scan) and on Day 15 of every third cycle with a ±2‐day window. Tumor status was assessed by the investigator using appropriate disease‐specific techniques. For solid tumors, the Response Evaluation Criteria in Solid Tumors (RECIST) 1.1 criteria were used,[19] and the recommended method for measuring tumor burden was computed tomography scan. Alternative modalities compatible with RECIST 1.1 could be used at the investigator's discretion provided they were used consistently throughout the study.
Both the efficacy and the safety population included all patients who received at least 1 dose of study drug. The PK/pharmacodynamic population included all patients who received at least one dose of study drug and provided at least one postdose plasma sample for PK/pharmacodynamic measurement. No comparisons are made between patients or against historical controls; only comparisons to pretreatment conditions were made.

[1] = c1-2 9 mg ID n=3, c3-4 13.5 mg ID n=23, c5-6 18 mg ID n=5, c7-8 ID subtotal n=31, c9-10 13.5 mg CD n=13, c11-12 total n=44, odd c all grades, even c Grade ≥3
[2] = Part 1, 13.5 mg ID, breast cancer, local no alteration detected
[3] = Part 1, 13.5 mg ID, cholangiocarcinoma, central FGF1 amp, FGFR2 amp
[4] = Part 1, 13.5 mg ID, other (intrahepatic cholangiocarcinoma), central no alteration detected
[5] = Part 1, 13.5 mg ID, other (lower bile duct cancer), central FGF6 mutation (p.S143N)

Question: Which results are given for `CCN1C(=O)N(c2c(F)c(OC)cc(OC)c2F)Cc2cnc3[nH]c(CN4CCOCC4)cc3c21` [Pemigatinib]?
Answer: Maximum tolerated dose (MTD) (9-18 mg QD): not identified; also recorded: not reached; Clinically notable TEAE: Eyelash changes (trichiasis) [1]: 2 (15.4) n (%); TEAE: ALT increased [1]: 6 (13.6) n (%); TEAE: AST increased [1]: 2 (15.4) n (%); TEAE: Blood alkaline phosphatase increased [1]: 2 (15.4) n (%); TEAE: Blood creatinine increased [1]: 6 (13.6) n (%); TEAE: Conjunctivitis [1]: 2 (15.4) n (%); TEAE: Decreased appetite [1]: 2 (15.4) n (%); TEAE: Dry skin [1]: 2 (15.4) n (%); TEAE: Keratitis [1]: 2 (15.4) n (%); TEAE: Malaise [1]: 6 (13.6) n (%); TEAE: Nail discoloration [1]: 2 (15.4) n (%); TEAE: Paronychia [1]: 6 (13.6) n (%); TEAE: Punctate keratitis [1]: 2 (15.4) n (%); TEAE: Trichiasis [1]: 2 (15.4) n (%); TEAE: Vomiting [1]: 6 (13.6) n (%); Chorioretinopathy (human, in vivo): 2.3%; Clinically notable TEAE: serous retinal detachment (category) (human, in vivo): 18.2%; Clinically notable ocular TEAE: dry eye (category) (human, in vivo): 25%; Dose interruptions due to clinically notable TEAEs (human, in vivo): 22.7%; Dose reductions due to clinically notable TEAEs (human, in vivo): 6.8%; Dry eye (term) (human, in vivo): 6.8%; Eyelash changes (trichiasis) (human, in vivo): 9.1%; Hyperphosphatemia leading to dose reduction (human, in vivo): 2.3%; Hypophosphatemia (human, in vivo): 4.5%; Keratitis (human, in vivo): 11.4%; Lacrimation increased (human, in vivo): 2.3%; Nail discoloration (human, in vivo): 6.8%; Nail ridging (human, in vivo): 2.3%; Nail toxicity TEAEs (human, in vivo): 31.8; Oncholysis (human, in vivo): 4.5%; Onychomadesis (human, in vivo): 11.4%; Paronychia (human, in vivo): 13.6%; Patients with at least 1 treatment-related TEAE (human, in vivo): 97.7%; Patients with treatment-related TEAEs of Grade ≥3 (human, in vivo): 15.9%; Punctate keratitis (human, in vivo): 6.8%; Serous retinal detachment (term) (human, in vivo): 11.4%; Severity of hyperphosphatemia events (human, in vivo): Grades 1 or 2; Subretinal fluid (human, in vivo): 4.5%; Treatment-related Grade ≥3 TEAE, each of anemia, punctate keratitis, diarrhea, stomatitis, ALT increased, AST increased, decreased appetite, hematuria (human, in vivo): 2.3%; Treatment-related alanine aminotransferase increased, Grade ≥3 (human, in vivo): 1 (2.3) n (%); Treatment-related aspartate aminotransferase increased, Grade ≥3 (human, in vivo): 1 (2.3) n (%); Treatment-related decreased appetite, Grade ≥3 (human, in vivo): 1 (2.3) n (%); Treatment-related diarrhea, Grade ≥3 (human, in vivo): 1 (2.3) n (%); Treatment-related stomatitis, Grade ≥3 (human, in vivo): 1 (2.3) n (%); Vision blurred (human, in vivo): 4.5%; Recommended phase 2 dose (RP2D) (human, in vivo, 21 days): 13.5 mg; Discontinuation due to hyperphosphatemia (in vivo): No patients; Dose-limiting toxicities (DLTs) (in vivo): No DLTs; Patients with any TEAE (in vivo): all enrolled patients; TEAE with a fatal outcome (overall, considered unrelated to pemigatinib): 6.8%; Best overall response of complete response or PR (advanced solid tumors; Part 1): no patient; Median best percentage change from baseline in target lesion size (advanced solid tumors; Part 1): −2.6%; Best overall response stable disease (advanced solid tumors; Part 1, 7 patients): 50.0%; Best overall response (advanced solid tumors; Part 1, 9 mg ID, gastric cancer): SD; Best change in sum of target lesion diameters (advanced solid tumors; Part 1, 9 mg ID, gastric cancer, central and local not tested): –13.3%; Best overall response (advanced solid tumors; Part 1, 9 mg ID, other (epithelioid hemangioendothelioma)): SD; Best change in sum of target lesion diameters (advanced solid tumors; Part 1, 9 mg ID, other (epithelioid hemangioendothelioma), central and local not tested): –12.6%; Best overall response (advanced solid tumors; Part 1, 9 mg ID, other (medulloblastoma), local no alteration detected): PD; Best change in sum of target lesion diameters (advanced solid tumors; [2]): 28.1%; Best overall response (advanced solid tumors; [2]): PD; Best change in sum of target lesion diameters (advanced solid tumors; [3]): –8.5%; Best overall response (advanced solid tumors; [3]): SD; Best overall response (advanced solid tumors; Part 1, 13.5 mg ID, colorectal cancer, FGFR1 amp): PD; Best change in sum of target lesion diameters (advanced solid tumors; Part 1, 13.5 mg ID, colorectal cancer, central and local FGFR1 amp): –21.1%; Best overall response (advanced solid tumors; Part 1, 13.5 mg ID, lung cancer (NSCLC)): SD; Best change in sum of target lesion diameters (advanced solid tumors; Part 1, 13.5 mg ID, lung cancer (NSCLC), not tested): –29.0%; Best change in sum of target lesion diameters (advanced solid tumors; [4]): 4.4%; Best overall response (advanced solid tumors; [4]): SD; Best change in sum of target lesion diameters (advanced solid tumors; [5]): –5.1%; Best overall response (advanced solid tumors; [5]): SD; Best change in sum of target lesion diameters (advanced solid tumors; Part 1, 18 mg ID, neuroendocrine cancer, local FGF6/23 amp): 37.5%

— PMC10225205 (Cancer Medicine, 2023)
